# Laboratory results published in US12245593B2, “Agricultural products and related methods” (priority 2017, dated 2025).
# Tested on: glyphosate-tolerant Palmer Amaranth (Amaranthus palmeri)
# Format: in vivo
# Conditions: glyphosate 1.27 kg/ha; Composition C 1 liter/ha; two weeks after spraying
# Protocol: Various plant treatment products comprising (i) select plant treatment components (e.g., pesticides, fungicides, herbicides) and (ii) one or more microbial fermentation product formulations (Composition A, B, C, and combinations) were tested on (1) rice (Oryza sativa) infected by Sheath Blight Rhizoctonia solani, (2) soybean (Glycine max) infected by Soybean Rust (Phakopsora pachyrhizi), (3) wheat (Triticum aestivum) infected by Stripe Rust (Puccinia striiformis), (4) corn (Zea mays) infected by Gray Leaf Spot (Cercospora zeae-maydis), (5) creeping bentgrass (Agrostis stolonifera) infected by dollar spot (Sclerotina homoeocarpa), and (6) glyphosate-tolerant Palmer Amaranth (Amaranthus palmeri) weed, and compared to controls, including plant treatment component(s) alone.
# To test the effects of the inventive plant treatment product on weed survival in herbicide-tolerant Palmer Amaranth (Amaranthus palmeri) plants, the plant treatment product (Composition C+herbicide) or herbicide component (alone) were applied to weeds, in greenhouse conditions. […] The measurements of dry shoot mass and dry root mass were taken two weeks after spraying. […] Thus, the inventive plant treatment product can enhance herbicide susceptibility in herbicide-tolerant plants.
smiles,measurement,value
"O=C(O)CNCP(=O)(O)O [Herbicide, glyphosate]",Palmer Amaranth root dry weight per plant in greenhouse conditions,0.768
same,"Palmer Amaranth root dry weight, change versus Untreated Control",−40.9%
same,Palmer Amaranth root fresh weight per plant in greenhouse conditions,4.70
same,"Palmer Amaranth root fresh weight, change versus Untreated Control",−51.3%
same,Palmer Amaranth shoot dry weight per plant in greenhouse conditions,5.31
same,"Palmer Amaranth shoot dry weight, change versus Untreated Control",−7.01%
same,Palmer Amaranth shoot fresh weight per plant in greenhouse conditions,15.0
same,"Palmer Amaranth shoot fresh weight, change versus Untreated Control",−20.6%
